Measured values taken from PubChem BioAssay (NCI).
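Cultured in 96-well plates, cells were exposed to test compound for 48 hours across five concentrations. TGI is the concentration that stops growth completely.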

Legend:
Test in all cases: NCI-60 cell line screen, 48 h
HOP-62 NSCLC = system: HOP-62 NSCLC
RPMI-8226 leukemia = system: RPMI-8226 leukemia
HOP-92 NSCLC = system: HOP-92 NSCLC
OVCAR-4 ovarian = system: OVCAR-4 ovarian
UO-31 renal = system: UO-31 renal
ACHN renal = system: ACHN renal
NCI-H23 lung = system: NCI-H23 lung
SR leukemia = system: SR leukemia
EKVX NSCLC = system: EKVX NSCLC
MDA-N = system: MDA-N
SNB-19 CNS = system: SNB-19 CNS
RXF 393 renal = system: RXF 393 renal
SW-620 colon = system: SW-620 colon
OVCAR-8 ovarian = system: OVCAR-8 ovarian
MALME-3M melanoma = system: MALME-3M melanoma
KM12 colon = system: KM12 colon
HCC-2998 colon = system: HCC-2998 colon

SMILES	TGI (HOP-62 NSCLC) [µM]	TGI (RPMI-8226 leukemia) [µM]	TGI (HOP-92 NSCLC) [µM]	TGI (OVCAR-4 ovarian) [µM]	TGI (UO-31 renal) [µM]	TGI (ACHN renal) [µM]	TGI (NCI-H23 lung) [µM]	TGI (SR leukemia) [µM]	TGI (EKVX NSCLC) [µM]	TGI (MDA-N) [µM]	TGI (SNB-19 CNS) [µM]	TGI (RXF 393 renal) [µM]	TGI (SW-620 colon) [µM]	TGI (OVCAR-8 ovarian) [µM]	TGI (MALME-3M melanoma) [µM]	TGI (KM12 colon) [µM]	TGI (HCC-2998 colon) [µM]
O=C1c2ccccc2CC12Cc1cc3c(cc1C2)CCC3	> 100	> 100	> 100	> 100	> 100	> 100	> 100	57.5	> 100	> 100	> 100	> 100	> 100	> 100	76.2	93.9	> 100
Cc1cccc2c(N)c3cccc(C(=O)NCC[N+](C)(C)Cc4ccccc4[N+](=O)[O-])c3nc12	> 41.4	> 58.3	49.5	> 34.5	> 28.3	13.9	14.1	2.09	> 100	> 41.4	> 100	> 37.7	> 53	> 30.7	25.8	> 100	> 25.9
O=C(N/C(=C\c1ccccc1)c1nc2ccccc2c(=O)o1)c1ccccc1	> 100	> 100	> 100	> 100	97.3	> 100	> 100	> 100	> 100	> 100	> 67.1	> 100	> 100	> 100	> 100	> 100	> 100
NC(=O)N/N=C\CC(O)(C(F)(F)Cl)C(F)(F)Cl	> 10	> 10	> 10	> 10	> 10	> 10	> 10	> 10	> 10	> 10	> 10	> 10	> 10	> 10	> 10	> 10	> 10
O=C(CCN1CCCCC1)Nc1ccc2c(c1)C(=O)c1ccc(NC(=O)CCN3CCCCC3)cc1C2=O	6.67	14.6	29.2	8.45	32.8	23.9	12.5	6.49	30.2	3.03	10.1	17.6	4.62	13.7	25.5	3.26	13.5
NC(=O)c1ncn(C2C=CC(CP(=O)(O)O)C2)c1N (centres undefined)	> 100	> 100	> 100	> 100	> 100	> 100	> 100	> 100	> 100	> 100	> 100	> 100	> 100	> 100	> 100	> 100	> 100
CC(=O)Nc1ccc(S(=O)(=O)c2nnc(NC(C)=O)s2)cc1	> 100	> 100	> 100	> 100	> 100	> 100	> 100	> 100	> 100	> 100	> 100	> 100	> 100	> 100	> 100	> 100	> 100
O=c1[nH]c2nc3ccccc3c(=O)n2/c1=C/c1ccccc1	> 100	> 100	> 100	> 100	> 100	> 100	> 100	> 100	> 100	78.5	55.9	> 100	47.6	> 100	> 100	> 100	> 100
CCC1C(NC(=O)OC)C(=O)N1[C@@H](C)c1ccccc1 (some centres undefined)	> 100	> 100	> 100	> 100	> 100	> 100	> 100	> 100	> 100	> 100	> 100	> 100	> 100	> 100	> 100	> 100	> 100
FC(F)(F)c1ccc2c(-c3cc[nH]c3)ccnc2c1	> 100	95.2	> 100	> 100	48.3	> 100	> 100	84.9	> 100	> 100	58.8	46.2	> 100	> 100	50.4	> 100	> 100
S=C(NCCc1ccccn1)N/N=C(\c1ccccc1)c1ccccn1	> 50.1	> 58	> 55.7	54.7	14.1	17.9	> 27.3	> 57.7	> 71.6	> 100	> 100	52.8	> 100	17.4	> 100	> 91.5	> 63
CCS1=C2C(=O)CC(C)(C)CC2=Nc2ccccc21 (centres undefined)	> 100	> 100	> 100	> 100	> 100	> 100	> 100	> 100	> 100	> 100	> 100	> 100	> 100	> 100	> 100	> 100	> 100
